Laboratory results as given in patent US9352013B2, “Uses of bremelanotide in therapy for female sexual dysfunction” (Palatin Technologies, Inc., priority 2012, dated 2016).
Marks after values point to notes of the source that are not given here.

How the values were obtained:
[1] = Example 1: ambulatory blood pressure monitoring; type: in vivo, human; conditions: for Pulse: treatment group difference (from placebo) in mean change from single-blind placebo: in bpm (unit assumed); for DBP: treatment group difference (from placebo) in mean change from single-blind placebo / SBP: treatment group difference (from placebo) in mean change from single-blind placebo: in mmHg (unit assumed); for HR-BP Product: treatment group difference (from placebo) in mean change from single-blind placebo: in mmHg·bpm (unit assumed)
Protocol: Ambulatory blood pressure monitoring was conducted following both placebo and randomized treatment group in-clinic administrations. Three periods of ambulatory blood pressure monitoring were included, the first period was from before to 24 hours after a single, in-clinic dose of placebo (to establish a baseline); the second and third periods occurred from before to 24 hours after each of 2 single, in-clinic doses of double-blind treatment, administered within 14 days of each other. Blood samples for pharmacokinetic analysis were collected before and at 0.5, 1.0, and 2.0 hours after each in-clinic bremelanotide single-dose treatment (double-blind only), to permit analysis of concentration-response relationships.
Mean changes in blood pressure were characterized in all subjects based on sequential supervised dosing of single-blind subcutaneous placebo and two doses of randomized study drug. The primary analysis for mean changes was the difference between treatment groups in the change from single-blind placebo to randomized drug (Visit 2 vs. Visits 5/7). There were between 86 to 100 subjects in each dose group.
Although there were an increased number of outliers for maximal changes from baseline in systolic blood pressure in drug-treated patients, the duration of these events was quite limited. The interrogation interval during ambulatory blood pressure monitoring assessments of 15 minutes allowed definition of the maximal duration of such excursions. […] The clinical significance of such changes, if any, is small.

[2] = test system: women diagnosed with sexual arousal disorder; conditions: single intranasal dose of 20 mg; cited from earlier work
[3] = 0.75 mg SC, interval 0-24 h, V5
[4] = 0.75 mg SC, interval 0-24 h, V7
[5] = 0.75 mg SC, interval 8-24 h, V5
[6] = 0.75 mg SC, interval 8-24 h, V7
[7] = 1.25 mg SC, interval 0-24 h, V5
[8] = 1.25 mg SC, interval 0-24 h, V7
[9] = 1.25 mg SC, interval 8-24 h, V5
[10] = 1.25 mg SC, interval 8-24 h, V7
[11] = 1.75 mg SC, interval 0-24 h, V5
[12] = 1.75 mg SC, interval 0-24 h, V7
[13] = 1.75 mg SC, interval 8-24 h, V5
[14] = 1.75 mg SC, interval 8-24 h, V7

## CCCC[C@H](NC(C)=O)C(=O)N[C@H]1CC(=O)NCCCC[C@@H](C(=O)O)NC(=O)[C@H](Cc2c[nH]c3ccccc23)NC(=O)[C@H](CCCNC(=N)N)NC(=O)[C@@H](Cc2ccccc2)NC(=O)[C@H](Cc2c[nH]cn2)NC1=O [bremelanotide, Ac-Nle-cyclo(-Asp-His-D-Phe-Arg-Trp-Lys)-OH]
[1]; 0.75 mg SC
  Systolic blood pressure shifts: ΔSBP >10 mmHg, Duration >30 minutes: 1
  Systolic blood pressure shifts: ΔSBP >15 mmHg, Duration >30 minutes: 0
[1]; 0.75 mg SC, interval 0-4 h, V5
  Pulse: treatment group difference (from placebo) in mean change from single-blind placebo: −5.2*
  DBP: treatment group difference (from placebo) in mean change from single-blind placebo: 1.5
  SBP: treatment group difference (from placebo) in mean change from single-blind placebo: 1.8
  HR-BP Product: treatment group difference (from placebo) in mean change from single-blind placebo: −492.8*
[1]; 0.75 mg SC, interval 0-4 h, V7
  Pulse: treatment group difference (from placebo) in mean change from single-blind placebo: −4.8*
  DBP: treatment group difference (from placebo) in mean change from single-blind placebo: 0.6
  SBP: treatment group difference (from placebo) in mean change from single-blind placebo: 1.1
  HR-BP Product: treatment group difference (from placebo) in mean change from single-blind placebo: −491.9*
[1]; [3]
  Pulse: treatment group difference (from placebo) in mean change from single-blind placebo: −2.2*
  DBP: treatment group difference (from placebo) in mean change from single-blind placebo: 1.1*
  SBP: treatment group difference (from placebo) in mean change from single-blind placebo: 1.1
  HR-BP Product: treatment group difference (from placebo) in mean change from single-blind placebo: −187.7
[1]; [4]
  Pulse: treatment group difference (from placebo) in mean change from single-blind placebo: −1.6
  DBP: treatment group difference (from placebo) in mean change from single-blind placebo: 1.3*
  SBP: treatment group difference (from placebo) in mean change from single-blind placebo: 1.5
  HR-BP Product: treatment group difference (from placebo) in mean change from single-blind placebo: −82.3
[1]; 0.75 mg SC, interval 4-8 h, V5
  Pulse: treatment group difference (from placebo) in mean change from single-blind placebo: −6.2*
  DBP: treatment group difference (from placebo) in mean change from single-blind placebo: 1.3
  SBP: treatment group difference (from placebo) in mean change from single-blind placebo: 0.9
  HR-BP Product: treatment group difference (from placebo) in mean change from single-blind placebo: −676.5*
[1]; 0.75 mg SC, interval 4-8 h, V7
  Pulse: treatment group difference (from placebo) in mean change from single-blind placebo: −5.5*
  DBP: treatment group difference (from placebo) in mean change from single-blind placebo: 1.7
  SBP: treatment group difference (from placebo) in mean change from single-blind placebo: 1.6
  HR-BP Product: treatment group difference (from placebo) in mean change from single-blind placebo: −503.3*
[1]; [5]
  Pulse: treatment group difference (from placebo) in mean change from single-blind placebo: −0.4
  DBP: treatment group difference (from placebo) in mean change from single-blind placebo: 1.0
  SBP: treatment group difference (from placebo) in mean change from single-blind placebo: 0.9
  HR-BP Product: treatment group difference (from placebo) in mean change from single-blind placebo: 5.2
[1]; [6]
  Pulse: treatment group difference (from placebo) in mean change from single-blind placebo: 0.1
  DBP: treatment group difference (from placebo) in mean change from single-blind placebo: 1.3*
  SBP: treatment group difference (from placebo) in mean change from single-blind placebo: 1.6
  HR-BP Product: treatment group difference (from placebo) in mean change from single-blind placebo: 114.9
[1]; 1.25 mg SC
  Systolic blood pressure shifts: ΔSBP >10 mmHg, Duration >30 minutes: 2
  Systolic blood pressure shifts: ΔSBP >15 mmHg, Duration >30 minutes: 0
[1]; 1.25 mg SC, interval 0-4 h, V5
  Pulse: treatment group difference (from placebo) in mean change from single-blind placebo: −5.2*
  DBP: treatment group difference (from placebo) in mean change from single-blind placebo: 3.0*
  SBP: treatment group difference (from placebo) in mean change from single-blind placebo: 2.4*
  HR-BP Product: treatment group difference (from placebo) in mean change from single-blind placebo: −436.4*
[1]; 1.25 mg SC, interval 0-4 h, V7
  Pulse: treatment group difference (from placebo) in mean change from single-blind placebo: −6.1*
  DBP: treatment group difference (from placebo) in mean change from single-blind placebo: 2.2*
  SBP: treatment group difference (from placebo) in mean change from single-blind placebo: 2.1*
  HR-BP Product: treatment group difference (from placebo) in mean change from single-blind placebo: −583.3*
[1]; [7]
  Pulse: treatment group difference (from placebo) in mean change from single-blind placebo: −2.9*
  DBP: treatment group difference (from placebo) in mean change from single-blind placebo: 1.9*
  SBP: treatment group difference (from placebo) in mean change from single-blind placebo: 1.1
  HR-BP Product: treatment group difference (from placebo) in mean change from single-blind placebo: −265.9
[1]; [8]
  Pulse: treatment group difference (from placebo) in mean change from single-blind placebo: −2.6*
  DBP: treatment group difference (from placebo) in mean change from single-blind placebo: 1.7*
  SBP: treatment group difference (from placebo) in mean change from single-blind placebo: 1.6*
  HR-BP Product: treatment group difference (from placebo) in mean change from single-blind placebo: −206.5
[1]; 1.25 mg SC, interval 4-8 h, V5
  Pulse: treatment group difference (from placebo) in mean change from single-blind placebo: −6.1*
  DBP: treatment group difference (from placebo) in mean change from single-blind placebo: 2.2*
  SBP: treatment group difference (from placebo) in mean change from single-blind placebo: 1.4
  HR-BP Product: treatment group difference (from placebo) in mean change from single-blind placebo: −621.0*
[1]; 1.25 mg SC, interval 4-8 h, V7
  Pulse: treatment group difference (from placebo) in mean change from single-blind placebo: −6.5*
  DBP: treatment group difference (from placebo) in mean change from single-blind placebo: 0.9
  SBP: treatment group difference (from placebo) in mean change from single-blind placebo: 1.3*
  HR-BP Product: treatment group difference (from placebo) in mean change from single-blind placebo: −669.7*
[1]; [9]
  Pulse: treatment group difference (from placebo) in mean change from single-blind placebo: −1.5
  DBP: treatment group difference (from placebo) in mean change from single-blind placebo: 1.4*
  SBP: treatment group difference (from placebo) in mean change from single-blind placebo: 0.7
  HR-BP Product: treatment group difference (from placebo) in mean change from single-blind placebo: −127.4
[1]; [10]
  Pulse: treatment group difference (from placebo) in mean change from single-blind placebo: −0.7
  DBP: treatment group difference (from placebo) in mean change from single-blind placebo: 1.7*
  SBP: treatment group difference (from placebo) in mean change from single-blind placebo: 1.5*
  HR-BP Product: treatment group difference (from placebo) in mean change from single-blind placebo: 4.2
[1]; 1.75 mg SC
  Systolic blood pressure shifts: ΔSBP >10 mmHg, Duration >30 minutes: 0
  Systolic blood pressure shifts: ΔSBP >15 mmHg, Duration >30 minutes: 0
[1]; 1.75 mg SC, interval 0-4 h, V5
  Pulse: treatment group difference (from placebo) in mean change from single-blind placebo: −4.6*
  DBP: treatment group difference (from placebo) in mean change from single-blind placebo: 3.2*
  SBP: treatment group difference (from placebo) in mean change from single-blind placebo: 3.1*
  HR-BP Product: treatment group difference (from placebo) in mean change from single-blind placebo: −305.9
[1]; 1.75 mg SC, interval 0-4 h, V7
  Pulse: treatment group difference (from placebo) in mean change from single-blind placebo: −4.7*
  DBP: treatment group difference (from placebo) in mean change from single-blind placebo: 2.6*
  SBP: treatment group difference (from placebo) in mean change from single-blind placebo: 2.5*
  HR-BP Product: treatment group difference (from placebo) in mean change from single-blind placebo: −375.4*
[1]; [11]
  Pulse: treatment group difference (from placebo) in mean change from single-blind placebo: −2.2*
  DBP: treatment group difference (from placebo) in mean change from single-blind placebo: 1.9*
  SBP: treatment group difference (from placebo) in mean change from single-blind placebo: 1.6
  HR-BP Product: treatment group difference (from placebo) in mean change from single-blind placebo: −139.1
[1]; [12]
  Pulse: treatment group difference (from placebo) in mean change from single-blind placebo: −2.2*
  DBP: treatment group difference (from placebo) in mean change from single-blind placebo: 1.8*
  SBP: treatment group difference (from placebo) in mean change from single-blind placebo: 1.3
  HR-BP Product: treatment group difference (from placebo) in mean change from single-blind placebo: −184.1
[1]; 1.75 mg SC, interval 4-8 h, V5
  Pulse: treatment group difference (from placebo) in mean change from single-blind placebo: −6.6*
  DBP: treatment group difference (from placebo) in mean change from single-blind placebo: 2.3*
  SBP: treatment group difference (from placebo) in mean change from single-blind placebo: 2.1
  HR-BP Product: treatment group difference (from placebo) in mean change from single-blind placebo: −608.1*
[1]; 1.75 mg SC, interval 4-8 h, V7
  Pulse: treatment group difference (from placebo) in mean change from single-blind placebo: −6.6*
  DBP: treatment group difference (from placebo) in mean change from single-blind placebo: 2.2*
  SBP: treatment group difference (from placebo) in mean change from single-blind placebo: 2.2
  HR-BP Product: treatment group difference (from placebo) in mean change from single-blind placebo: −624.5*
[1]; [13]
  Pulse: treatment group difference (from placebo) in mean change from single-blind placebo: −0.8
  DBP: treatment group difference (from placebo) in mean change from single-blind placebo: 1.4*
  SBP: treatment group difference (from placebo) in mean change from single-blind placebo: 0.9
  HR-BP Product: treatment group difference (from placebo) in mean change from single-blind placebo: −23.7
[1]; [14]
  Pulse: treatment group difference (from placebo) in mean change from single-blind placebo: −0.5
  DBP: treatment group difference (from placebo) in mean change from single-blind placebo: 1.4
  SBP: treatment group difference (from placebo) in mean change from single-blind placebo: 0.6
  HR-BP Product: treatment group difference (from placebo) in mean change from single-blind placebo: −31.3
[2]
  Vaginal pulse amplitude measures compared to placebo: without statistically relevant differences
